Experimental data as given in patent publication US9469645B2, “Compounds and compositions for the treatment of parasitic diseases” (Novartis AG, priority 2009, dated 2016).
Read-outs that look alike come from different tables or passages of the source.

Key:
3D7 P. falciparum strain = assay: parasite proliferation assay in infected red blood cells (SYBR Green I); type: cell-based, Plasmodium falciparum; details: 3D7 strain, read-out: EC50 3D7 strain
Procedure, shortened: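 P. falciparum 3D7 grown in O+ human erythrocytes to 3–8% parasitemia and exposed to compounds. Proliferation read as the increase in parasite DNA. Detection used SYBR Green I in saponin/triton-X/EDTA lysis buffer, with overnight lysis at room temperature.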

W2 strain = assay: parasite proliferation assay in infected red blood cells (SYBR Green I), W2 strain; type: cell-based
Excerpt: Compounds of the invention can be assayed to measure their capacity to inhibit proliferation of parasitemia in infected red blood cells. The proliferation is quantified by the addition of SYBR Green I (INVITROGEN)® dye which has a high affinity for double stranded DNA.

[1] = Plasmodium falciparum, 3D7, Erythrocyte
[2] = Plasmodium falciparum, Erythrocyte

| SMILES | EC50 (3D7 P. falciparum strain; [1]) [nM] | EC50 (W2 strain; Erythrocyte) [nM] | EC50 (W2 strain; [2]) [nM] | EC50 (3D7 P. falciparum strain) [nM] | EC50 (W2 strain) [nM] |
| --- | --- | --- | --- | --- | --- |
| CN[C@@H](Cc1ccccc1)C(=O)N1CCn2c(nc(-c3ccc(F)cc3)c2Nc2ccc(C)cc2)C1 [Compound 149] | 20 | 11 | – | – | – |
| CC(C)C[C@@H](N)C(=O)N1CCn2c(nc(-c3ccc(F)cc3)c2Nc2ccc(Cl)c(F)c2)C1 [Compound 394] | 50 | 43 | – | – | – |
| Cc1ccc(Nc2c(-c3ccc(F)cc3)nc3n2CCN(C(=O)[C@H]2CCN2)C3)cc1 [Compound 89] | 50 | 73 | – | – | – |
| Cc1ccc(Nc2c(-c3cccc(Cl)c3)nc3n2CCN(C(=O)C(C)(C)N)C3)cc1 [Compound 397] | 2450 | 1670 | – | – | – |
| Cc1ccc(Nc2c(-c3ccc(F)cc3)nc3n2CCN(C(=O)[C@H](CCCCNC(=O)OC(C)(C)C)NC(=O)OCc2ccccc2)C3)cc1 [Compound 152] | 3870 | 873 | – | – | – |
| Fc1cccc(-c2nc3cnccn3c2Nc2ccc(Cl)c(F)c2)c1 [Compound 207] | 9310 | 2420 | – | – | – |
| C[C@H](OCc1ccccc1)[C@H](N)C(=O)N1CCn2c(nc(-c3ccc(F)cc3)c2Nc2ccc(Cl)c(F)c2)C1 [Compound 312] | 1640 | 897 | – | – | – |
| Cc1cc(C)cc(Sc2c(-c3ccc(F)cc3)nc3n2CCN(C(=O)CN)C3(C)C)c1 [Compound 717] | 26 | – | 16 | – | – |
| CC1(C)c2nc(-c3ccc(F)cc3)c(Nc3ccc(F)cc3)n2CCN1C(=O)CNC(=O)CCc1ccc2oc3ccccc3c2c1 [Compound 727] | 6560 | – | 2970 | – | – |
| CC[C@H](C(=O)N1CCn2c(nc(-c3ccc(F)cc3)c2Nc2ccc(C)cc2)C1)c1ccccc1 [Compound 225] | 550 | 316 | – | – | – |
| N#Cc1ccc(Nc2c(-c3ccc(F)cc3)nc3n2CCNC3)cc1 [Compound 249] | 5390 | 5060 | – | – | – |
| Cc1ccc(Nc2c(-c3ccc(F)c(F)c3)nc3n2CCNC3)cc1 [Compound 278] | 210 | 269 | – | – | – |
| O=C(CN1CCn2c(nc(-c3ccc(F)cc3)c2Nc2ccc(Cl)cc2)C1)c1ccc(F)cc1 [Compound 271] | 440 | 385 | – | – | – |
| Cc1ccc(Nc2c(-c3ccc(F)cc3)nc3n2CCN(C(=O)C2(N)CCCCC2)C3)cc1 [Compound 141] | 70 | 90 | – | – | – |
| Cc1ccc(Nc2c(-c3ccc(F)cc3)nc3n2CC(C)CC3)cc1 (stereo not shown) [Compound 753] | 376 | – | 592 | – | – |
| Cc1ccc(Nc2c(-c3ccc(F)cc3)nc3n2CCN(C(=O)[C@@H]2CC(=O)N2)C3)cc1 [Compound 162] | 1780 | 1380 | – | – | – |
| Cc1ccc(Nc2c(-c3ccc(F)cc3)nc3n2CCN(C(=O)[C@H](O)c2ccccc2)C3)cc1 [Compound 137] | 10 | 12 | – | – | – |
| Cc1ccc(Nc2c(-c3ccc(F)cc3)nc3n2CCN(C(=O)C2CCCNC2)C3)cc1 (stereo not shown) [Compound 92] | – | – | – | 1300 | 1480 |
| CCCC(=O)Nc1ccc(C[C@H](N)C(=O)N2CCn3c(nc(-c4ccc(F)cc4)c3Nc3ccc(C)cc3)C2)cc1 [Compound 197] | 4160 | 1040 | – | – | – |
| CC1(C)CN(C(=O)CN)Cc2nc(-c3cccc(F)c3)c(Nc3ccc(Cl)c(F)c3)n21 [Compound 623] | 30 | – | 32 | – | – |

| SMILES | EC50 (3D7 P. falciparum strain; [1]) [nM] | EC50 (W2 strain; Erythrocyte) [nM] | EC50 (W2 strain; [2]) [nM] | EC50 (3D7 P. falciparum strain) [nM] | EC50 (W2 strain) [nM] |
| --- | --- | --- | --- | --- | --- |
| O=C(CNC1CC1)N1CCn2c(nc(-c3ccc(F)cc3)c2Nc2ccc(F)cc2)C1 [Compound 68] | 150 | 264 | – | – | – |
| Cc1ccc(Nc2c(-c3ccc(F)cc3)nc3n2CCN(C(=O)CC2CCNCC2)C3)cc1 [Compound 220] | 1130 | 937 | – | – | – |
| O=C(CN1CCC(F)(F)CC1)N1CCn2c(nc(-c3ccc(F)cc3)c2Nc2ccc(F)cc2)C1 [Compound 62] | 4740 | 4740 | – | – | – |
| CCC(=O)Nc1ccc(C[C@H](N)C(=O)N2CCn3c(nc(-c4ccc(F)cc4)c3Nc3ccc(C)cc3)C2)cc1 [Compound 187] | 6680 | 3550 | – | – | – |
| NCC(=O)N1CCn2c(nc(-c3ccc(F)cc3)c2Nc2ccc(F)cc2)C1 [Compound 4] | 20 | 23 | – | – | – |
| Cc1ccc(Cc2c(-c3ccc(F)cc3)nc3n2CCN(C(=O)CN)C3(C)C)cc1 [Compound 694] | 11 | – | 7 | – | – |
| CC(C)C[C@H](O)C(=O)N1CCn2c(nc(-c3ccc(F)cc3)c2Nc2ccc(Cl)c(F)c2)C1 [Compound 358] | 130 | 49 | – | – | – |
| Cc1ccc(Nc2c(-c3ccc(F)cc3)nc3n2CCN(C(=O)C2CCNC2)C3)cc1 (stereo not shown) [Compound 96] | – | – | – | 580 | 321 |
| Cc1cc(Nc2c(-c3cccc(F)c3)nc3n2C(C)(C)CN(C(=O)CN)C3)ccc1F [Compound 625] | 170 | – | 194 | – | – |
| COC(C(=O)N1CCn2c(nc(-c3ccc(F)cc3)c2Nc2ccc(C)cc2)C1)(c1ccccc1)C(F)(F)F (stereo not shown) [Compound 128] | 1180 | 743 | – | – | – |
| Cc1ccc(Nc2c(-c3ccc(F)cc3)nc3n2CCN(C(=O)C(O)c2ccc(F)cc2)C3)cc1 (stereo not shown) [Compound 107] | 10 | 10 | – | – | – |
| NCC(=O)N1CCn2c(nc(-c3ccc(F)cc3)c2Nc2ccc(F)c(F)c2)C1 [Compound 30] | 30 | 23 | – | – | – |
| Cc1ccc(Nc2c(-c3cccc(F)c3)nc3n2CC(=O)NC3(C)C)cc1Cl [Compound 604] | 40 | – | 49 | – | – |
| CC(C)(N)C(=O)N1CCn2c(nc(-c3ccc(F)cc3)c2Nc2cccc(OC(F)(F)F)c2)C1 [Compound 640] | 3950 | – | 4510 | – | – |
| COc1ccc(Cc2c(-c3ccc(F)cc3)nc3n2CCN(C(=O)CN)C3(C)C)cc1 [Compound 695, 2-amino-1-(2-(4-fluorophenyl)-3-(4-methoxybenzyl)-8,8-dimethyl-5,6-dihydroimidazol[1,2-a]pyrazin-7(8H)-yl)ethanone] | 17 | – | 19 | – | – |
| Cc1ccc(Nc2c(-c3ccc(F)cc3)nc3n2CCN(C(=O)C2CCCNC2)C3)cc1 (stereo not shown) [Compound 87] | – | – | – | 20 | 12 |
| Cc1ccc(Nc2c(-c3ccc(F)cc3)nc3n2CCN(C(=O)[C@@H](C)N)C3)cc1 [Compound 84] | 50 | 74 | – | – | – |
| CC1(C)c2nc(-c3ccc(F)cc3)c(Nc3cccc(Cl)c3)n2CCN1C(=O)CN [Compound 651] | 8 | – | 5 | – | – |
| Cc1ccc(Nc2c(-c3ccc(F)cc3)nc3n2CCN(C(=O)[C@@H](N)c2ccccc2)C3)cc1 [Compound 98] | 10 | 8 | – | – | – |
| Cc1cccc(Nc2c(-c3ccc(F)cc3)nc3n2CCN(C(=O)C(C)(C)N)C3)c1 [Compound 638] | 65 | – | 68 | – | – |

| SMILES | EC50 (3D7 P. falciparum strain; [1]) [nM] | EC50 (W2 strain; Erythrocyte) [nM] | EC50 (W2 strain; [2]) [nM] | EC50 (3D7 P. falciparum strain) [nM] | EC50 (W2 strain) [nM] |
| --- | --- | --- | --- | --- | --- |
| Cc1ccc(Nc2c(-c3ccc(F)cc3)nc3n2CCN(C(=O)[C@@H](O)CC2CCCCC2)C3)cc1 [Compound 145] | 90 | 68 | – | – | – |
| Cc1ccc(N2Cc3nc(-c4ccc(F)cc4)c(N)n3CC2=O)cc1 [Compound 299] | > 8740 | 9400 | – | – | – |
| CC(C)(C)OC(=O)N[C@@H](Cc1ccc(N)cc1)C(=O)N1CCn2c(nc(-c3cccc(F)c3)c2Nc2ccc(Cl)c(F)c2)C1 [Compound 242] | 2090 | 288 | – | – | – |
| CCCNC(=O)CC[C@H](N)C(=O)N1CCn2c(nc(-c3ccc(F)cc3)c2Nc2ccc(C)cc2)C1 [Compound 188] | 790 | 1100 | – | – | – |
| Cc1cc(Nc2c(-c3ccc(F)cc3)nc3n2C(C)(C)C(=O)N(C)C3)ccc1Cl [Compound 616] | 5720 | – | 4560 | – | – |
| Fc1ccc(Nc2c(-c3ccc(F)cc3)nc3cnccn23)cc1 [Example 26, N,2-bis(4-fluorophenyl)imidazo[1,2-a]pyrazin-3-amine] | > 10000 | 5520 | – | – | – |
| CC1(C)c2nc(-c3ccc(F)cc3)c(Nc3ccc(F)cc3)n2CCN1C(=O)CNC(=O)CCc1ccccc1 [Compound 726] | 1920 | – | 1480 | – | – |
| CCCCCNC(=O)C[C@H](NC(=O)OC(C)(C)C)C(=O)N1CCn2c(nc(-c3cccc(F)c3)c2Nc2ccc(F)cc2)C1 [Compound 250] | 3880 | 3980 | – | – | – |
| CCCC[C@H](NC)C(=O)N1CCn2c(nc(-c3ccc(F)cc3)c2Nc2ccc(C)cc2)C1 [Compound 389] | 60 | 51 | – | – | – |
| CC1(C)C(=O)NCc2nc(-c3ccc(F)cc3)c(Nc3ccc(Cl)c(F)c3)n21 [Compound 618] | 2130 | – | 2890 | – | – |
| O=C(CNCC(F)F)N1CCn2c(nc(-c3ccc(F)cc3)c2Nc2ccc(F)cc2)C1 [Compound 65] | 470 | 509 | – | – | – |
| Cc1ccc(Nc2c(-c3ccc(F)cc3)nc3n2CCN(C(=O)N2CCC(N(C)C)C2)C3)cc1 (stereo not shown) [Example 251, (3-(dimethylamino)pyrrolidin-1-yl)(2-(4-fluorophenyl)-3-(p-tolylamino)-5,6-dihydroimidazo[1,2-a]pyrazin-7(8H)-yl)methanone] | 3680 | 2550 | – | – | – |
| CC(C)(C)CC(C)(C)Nc1c(-c2ccccc2-c2cccs2)nc2ccccn12 [Compound 741] | 5250 | – | 4830 | – | – |
| Cc1ccc(Nc2c(-c3ccc(F)cc3)nc3n2CCN(C(=O)C(C)(C)N)C3)cc1C#N [Compound 630] | 35 | – | 85 | – | – |
| CNC(C)(C)C(=O)N1CCn2c(nc(-c3ccc(F)cc3)c2Nc2ccc(Cl)c(F)c2)C1 [Compound 320] | 170 | 103 | – | – | – |
| Cc1ccc(Nc2c(-c3ccc(F)cc3)nc3n2CCN(C(=O)CC2CCCCO2)C3)cc1 (stereo not shown) [Compound 216] | 300 | 248 | – | – | – |
| Cc1ccc(Nc2c(-c3cccc(Cl)c3)nc3n2CCN(C(=O)CN)C3)cc1 [Compound 383] | 50 | 32 | – | – | – |
| Cc1ccc(Nc2c(-c3ccncc3)nc3n2CCNC3)cc1 [Compound 354] | 6320 | 564 | – | – | – |
| Cc1ccc(Nc2c(-c3ccc(F)cc3)nc3n2CCN(C(=O)C2CCCNC2)C3)cc1 (stereo not shown) [Compound 93] | – | – | – | 1670 | 1510 |
